Laboratory results from EP4512398A1, “FLURALANER FOR USE IN METHODS OF TREATMENT AND PREVENTION OF SEA LICE INFESTATION IN FISH” (Bimeda Animal Health Limited, priority 2023, dated 2025).

Legend:
Atlantic salmon = assay: mortality, adverse effects and behaviour of treated salmon in the proof-of-concept trial; format: in vivo
Protocol: (§1) A proof-of-concept experiment was carried out to determine the efficacy of fluralaner as a treatment for L. salmonis in farmed Atlantic salmon. Salmon infected with sea lice were divided evenly into three tanks, 41 fish per tank. Tank A acted as a control and no fluralaner was administered to the salmon, Tank B was given a low dog dose (25 mg/ kg of body weight) treatment and Tank C was given a high dog dose treatment (56 mg/ kg body weight). (See bravecto-epar-product-information attached for dosing rates). The powdered form of the drug was administered by mixing with standard aquaculture salmonid feed using fish oil as a binder. The experiment lasted for one week, between the 4/08/23 and the 11/08/23.
Samples have been retained for histology and residue testing.

L. salmonis = assay: proof-of-concept efficacy experiment: fluralaner in feed to sea-lice-infected farmed Atlantic salmon, lice counts; format: in vivo; settings: for Average lice per fish / Total lice: 15 salmon sampled
Protocol: as §1

[1] = Tank B, 25 mg/ kg of body weight oral in feed, 04/08/2023 (start of experiment, baseline)
[2] = Tank C, 56 mg/ kg body weight oral in feed, 04/08/2023 (start of experiment, baseline)

**Q.** For `Cc1cc(C2=NOC(c3cc(Cl)cc(Cl)c3)(C(F)(F)F)C2)ccc1C(=O)NCC(=O)NCC(F)(F)F` (stereo not shown) [fluralaner, Fluralaner], which mortalities (Atlantic salmon; during the trial period or since its discontinuation) is on record?
**A.** no mortalities

**Q.** And the “adverse effects on the salmon” value (Atlantic salmon; trial period)?
**A.** no obvious adverse effects

**Q.** And the “behaviour of the salmon” value (Atlantic salmon; trial period)?
**A.** normal

**Q.** What about the “Average lice per fish” value (L. salmonis; [1]) of the same compound?
**A.** 25.8

**Q.** What about the Total lice (L. salmonis; [1]) of the same compound?
**A.** 387

**Q.** And the “Average lice per fish” value (L. salmonis; Tank B, 25 mg/ kg of body weight oral in feed, 11/08/2023 (after one week), control Tank A 21.9)?
**A.** 0.1

**Q.** What about the Total lice (L. salmonis; Tank B, 25 mg/ kg of body weight oral in feed, 11/08/2023 (after one week), control Tank A 329) of the same compound?
**A.** 1

**Q.** And the “Average lice per fish” value (L. salmonis; [2])?
**A.** 23.3

**Q.** What about the Total lice (L. salmonis; [2]) of the same compound?
**A.** 350

**Q.** What about the “Average lice per fish” value (L. salmonis; Tank C, 56 mg/ kg body weight oral in feed, 11/08/2023 (after one week), control Tank A 21.9) of the same compound?
**A.** 0

**Q.** And the Total lice (L. salmonis; Tank C, 56 mg/ kg body weight oral in feed, 11/08/2023 (after one week), control Tank A 329)?
**A.** 0

**Q.** And the “total lice numbers on the salmon that received the treatment” value (L. salmonis; after one week, control tank remained high)?
**A.** significantly reduced

**Q.** And the “efficacy in treating L. salmonis in Atlantic salmon” value (L. salmonis; preliminary study, oral in feed, 25 and 56 mg/kg)?
**A.** highly effective
